Measurements published in patent publication EP4667464A1 (Cyrus Therapeutics Inc., priority 2023, dated 2024).
Where two headings read alike, the source gives them in different places.

Experiments:
KRAS G12C::SOS1 = target: T1, KRAS G12C::SOS1 (Homo sapiens, UniProt Q07889); assay: KRAS G12C::SOS1 protein-protein interaction (PPI) inhibition assay (HTRF); format: binding
T1 construct: purchased CISBIO 64KRASG12PEH
T1 sequence (Q07889 1-1333): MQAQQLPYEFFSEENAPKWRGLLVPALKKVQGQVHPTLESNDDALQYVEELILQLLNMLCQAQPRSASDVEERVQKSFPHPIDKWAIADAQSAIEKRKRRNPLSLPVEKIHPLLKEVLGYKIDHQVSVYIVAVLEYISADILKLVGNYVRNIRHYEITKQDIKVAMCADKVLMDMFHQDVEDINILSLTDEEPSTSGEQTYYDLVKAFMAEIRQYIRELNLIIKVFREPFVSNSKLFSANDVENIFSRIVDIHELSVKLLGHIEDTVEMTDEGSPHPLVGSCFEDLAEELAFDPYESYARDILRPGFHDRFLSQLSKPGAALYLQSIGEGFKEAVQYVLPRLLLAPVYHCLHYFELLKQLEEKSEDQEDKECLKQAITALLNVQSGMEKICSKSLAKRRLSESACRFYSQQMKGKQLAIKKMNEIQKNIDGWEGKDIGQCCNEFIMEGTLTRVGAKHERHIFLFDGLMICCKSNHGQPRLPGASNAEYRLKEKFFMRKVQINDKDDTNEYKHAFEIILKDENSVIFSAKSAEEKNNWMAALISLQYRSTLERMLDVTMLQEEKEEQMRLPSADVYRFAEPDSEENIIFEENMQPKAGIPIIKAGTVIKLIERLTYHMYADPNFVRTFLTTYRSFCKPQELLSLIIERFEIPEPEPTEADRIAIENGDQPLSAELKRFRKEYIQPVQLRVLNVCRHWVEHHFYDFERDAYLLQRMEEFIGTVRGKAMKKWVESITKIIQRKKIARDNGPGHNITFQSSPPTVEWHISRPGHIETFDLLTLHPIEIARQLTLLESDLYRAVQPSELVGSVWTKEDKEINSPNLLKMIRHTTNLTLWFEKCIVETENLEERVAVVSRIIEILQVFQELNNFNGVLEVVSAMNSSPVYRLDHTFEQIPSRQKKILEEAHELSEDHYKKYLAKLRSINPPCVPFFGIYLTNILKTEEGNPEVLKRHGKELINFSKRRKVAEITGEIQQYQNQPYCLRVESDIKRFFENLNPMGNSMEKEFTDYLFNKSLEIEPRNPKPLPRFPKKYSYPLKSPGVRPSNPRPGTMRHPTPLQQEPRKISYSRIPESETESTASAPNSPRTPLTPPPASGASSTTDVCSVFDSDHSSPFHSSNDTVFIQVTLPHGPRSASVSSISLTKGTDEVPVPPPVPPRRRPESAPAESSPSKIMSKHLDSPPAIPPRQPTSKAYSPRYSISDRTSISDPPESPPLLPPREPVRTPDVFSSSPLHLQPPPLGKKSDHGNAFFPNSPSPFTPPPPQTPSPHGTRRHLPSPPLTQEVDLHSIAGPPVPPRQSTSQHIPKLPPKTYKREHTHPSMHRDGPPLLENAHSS
Procedure: Protein-protein interaction between SOS1 and KRAS^G12c was detected using KRAS G12C/SOS1 binding kit from CISBIO (64KRASG12PEH, CISBIO, FRANCE) according to the manufacturer's assay method. Briefly, the maximum concentration of an inhibitor sample was set to be 3 µM, and the inhibitor sample was diluted 7 times by 1/3, and samples having a total of 8 concentrations were prepared. In HTRF (Homogeneous Time-Resolved Fluorescence) exclusive 96-well low-volume white plate (66PL96005, CISBIO, FRANCE), 2 µL of an inhibitor sample prepared for each concentration, 5 µL of a mixed solution of Tag1 labeled KRAS^G12c protein and GTP diluted with the dilution solution provided by the manufacturer, and 5 µL of Tag2 labeled SOS1 protein were mixed, and added with 8 µL of a diluted solution where anti-Tag1 KRAS^G12C XL665 (HTRF acceptor) labeled antibody and anti-Tag2 SOS1 Terbium cryptate (HTRF donor) labeled antibody were mixed in an equal ratio and cultured at room temperature for 2 h.

SOS1 = target: T2, SOS1 (Homo sapiens, UniProt Q07889); assay: SOS-catalyzed nucleotide exchange assay (HTRF, SOS1-mediated GTP loading of KRAS G12D); format: biochemical
T2 construct: HIS-SOS1cat (160 nM; Cytoskeleton, US); His (N); purchased Cytoskeleton
T2 sequence (Q07889 564-1049 limits assumed): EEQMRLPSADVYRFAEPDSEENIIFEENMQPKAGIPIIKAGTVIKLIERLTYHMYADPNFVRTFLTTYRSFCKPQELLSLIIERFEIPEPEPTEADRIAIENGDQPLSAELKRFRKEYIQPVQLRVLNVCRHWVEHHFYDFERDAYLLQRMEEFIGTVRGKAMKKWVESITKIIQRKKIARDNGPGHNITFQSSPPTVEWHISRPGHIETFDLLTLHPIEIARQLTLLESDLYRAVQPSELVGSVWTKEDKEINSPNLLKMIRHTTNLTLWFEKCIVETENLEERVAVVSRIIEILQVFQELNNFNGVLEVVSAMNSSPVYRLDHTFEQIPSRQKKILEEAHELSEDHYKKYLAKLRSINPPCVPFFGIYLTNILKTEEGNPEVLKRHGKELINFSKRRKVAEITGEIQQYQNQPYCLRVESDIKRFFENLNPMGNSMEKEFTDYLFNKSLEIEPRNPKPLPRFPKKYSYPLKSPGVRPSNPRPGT
Procedure: SOS1 activity was measured by SOS1-mediated GTP loading quantification of KRAS^G12D. GTP loaded KRAS^G12D was detected by HTRF (Homogeneous Time Resolved Fluorescence) using anti-GST terbium (Cisbio, France) as a donor and a fluorescence GTP analogue (EDA-GTP-DY-647P1, [DY-647P1 labeled 2'/3'-O-(2-aminoethyl-carbamoyl)guanosine-5'-triphosphate (Jena bioscience, Germany)]) as an acceptor.
KRAS^G12D working solution was prepared by adding equal amounts of GST-KRAS^G12D (100 nM) and anti-GST-terbium (2 nM; Cisbio, France) to the assay buffer and culturing on ice for 10 minutes. […] Control solution was prepared by adding equal volumes of EDA-GTP-DY-647P1 and the assay buffer for normalization control to exclude GEF-independent GTP loading and background signals.
10 uL of the KRAS^G12D solution was added to each well and incubated for 30 minutes at room temperature while shaking. HTRF was measured using a Thermo Varioskan (excitation 334 nm, emission 665 nm). The IC50 of each inhibitor was analyzed using Graphad Prism.

[1] = 8 concentrations from 3 µM, three replicates, read-out: KRAS G12C::SOS1 PPI
[2] = GST-KRAS G12D, HIS-SOS1cat, compound 128 pM to 10 µM, read-out: SOS-catalyzed nucleotide exchange assay

SMILES | IC50 (KRAS G12C::SOS1; [1]) | IC50 (SOS1; [2]) | IC50 (KRAS G12C::SOS1) | IC50 (SOS1)
C[C@@H](NC(=O)c1ccc(=O)n(-c2cncc(-c3cnnn3C)c2)n1)c1cccc(C(F)(F)CO)c1Cl [Example 1-3, N-[(1R)-1-[2-chloro-3-(1,1-difluoro-2-hydroxy-ethyl)phenyl]ethyl]-1-[5-(3-methyltriazol-4-yl)-3-pyridyl]-6-oxo-pyridazine-3-carboxamide] | 50 to 150 nM | 50 to 150 nM |  | 
[2H]c1cc(C(=O)N[C@H](C)c2cccc(C(F)(F)CO)c2F)nn(-c2cncc(-c3cnnn3C3CC3)c2)c1=O [Example 1-43] | < 50 nM | < 50 nM |  | 
C[C@@H](NC(=O)c1cc(C#N)c(=O)n(-c2cncc(-c3cnnn3C)c2)n1)c1cccc(C(F)F)c1F [Example 3-1, 5-cyano-N-[(1R)-1-[3-(difluoromethyl)-2-fluorophenyl]ethyl]-1-[5-(1-methyl-1H-1,2,3-triazol-5-yl)pyridin-3-yl]-6-oxo-1,6-dihydropyridazine-3-carboxamide] | > 150 nM | 50 to 150 nM |  | 
COC(=O)N1CC(n2nncc2-c2cncc(-n3nc(C(=O)N[C@H](C)c4cccc(C(F)(F)F)c4F)ccc3=O)c2)C1 [Example 20-11, methyl (R)-3-(5-(5-(3-((1-(2-fluoro-3-(trifluoromethyl)phenyl)ethyl)carbamoyl)-6-oxopyridazin-1(6H)-yl)pyridin-3-yl)-1H-1,2,3-triazol-1-yl)azetidine-1-carboxylate] | < 50 nM | < 50 nM |  | 
CCc1cc(C(=O)N[C@H](C)c2cccc(C(F)(F)F)c2F)nn(-c2cncc(-c3cnnn3C)c2)c1=O [Example 1-66, N-{(R)-1-[2-fluoro-3-(trifluoromethyl)phenyl]ethyl}-5-ethyl-1-[5-(1-methyl-1H-1,2,3-triazol-5-yl)-3-pyridyl]-6-oxo-1,6-dihydropyridazine-3-carboxamide] | < 50 nM | 50 to 150 nM |  | 
CCc1cc(C(=O)N[C@H](C)c2cccc(C(F)(F)CO)c2F)nn(-c2cncc(-c3cnnn3C(C)C)c2)c1=O [Example 1-41, N-{(R)-1-[3-(1,1-difluoro-2-hydroxyethyl)-2-fluorophenyl]ethyl}-5-ethyl-1-[5-(1-isopropyl-1H-1,2,3-triazol-5-yl)-3-pyridyl]-6-oxo-1,6-dihydropyridazine-3-carboxamide] | < 50 nM | < 50 nM |  | 
C[C@@H](NC(=O)c1ccc(=O)n(-c2cnnc(-c3ccnn3C)c2)n1)c1cccc(C(F)(F)F)c1F [Example 1-19, N-[(1R)-1-[2-fluoro-3-(trifluoromethyl)phenyl]ethyl]-1-[6-(2-methylpyrazol-3-yl)pyridazin-4-yl]-6-oxo-pyridazine-3-carboxamide] | > 150 nM | > 150 nM |  | 
C[C@@H](NC(=O)c1ccc(=O)n(-c2cncc(-c3cnnn3CCO)c2)n1)c1cccc(C(F)(F)F)c1F [Example 11, N-{(R)-1-[2-fluoro-3-(trifluoromethyl)phenyl]ethyl}-1-{5-[1-(2-hydroxyethyl)-1H-1,2,3-triazol-5-yl]-3-pyridyl}-6-oxo-1,6-dihydropyridazine-3-carboxamide] | 50 to 150 nM | < 50 nM |  | 
CCn1nncc1-c1cncc(-n2nc(C(=O)N[C@H](C)c3cccc(C(F)(F)CO)c3F)ccc2=O)c1 [Example 1-18, N-[(1R)-1-[3-(1,1-difluoro-2-hydroxy-ethyl)-2-fluoro-phenyl]ethyl]-1-[5-(3-ethyltriazol-4-yl)-3-pyridyl]-6-oxo-pyridazine-3-carboxamide] | < 50 nM | < 50 nM |  | 
C[C@@H](NC(=O)c1cc(F)c(=O)n(-c2cncc(-c3cnnn3C)c2)c1)c1cccc(C(F)(F)F)c1F [Example 1-30, (R)-3-fluoro-N-(1-(2-fluoro-3-(trifluoromethyl)phenyl)ethyl)-5'-(1-methyl-1H-1,2,3-triazol-5-yl)-2-oxo-2H-[1,3'-bipyridine]-5-carboxamide] | > 150 nM | > 150 nM |  | 
CCn1nncc1-c1cncc(-n2nc(C(=O)N[C@H](C)c3cccc(C(F)(F)CO)c3F)cc(C)c2=O)c1 [Example 1-13, N-[(1R)-1-[3-(1,1-difluoro-2-hydroxy-ethyl)-2-fluoro-phenyl]ethyl]-1-[5-(3-ethyltriazol-4-yl)-3-pyridyl]-5-methyl-6-oxo-pyridazine-3-carboxamide] | < 50 nM | < 50 nM |  | 
C[C@@H](NC(=O)c1ccc(=O)n(-c2cncc(-c3cnnn3C3CCN(S(C)(=O)=O)CC3)c2)n1)c1cccc(C(F)(F)F)c1F [Example 20-8, (R)-N-(1-(2-fluoro-3-(trifluoromethyl)phenyl)ethyl)-1-(5-(1-(1-(methylsulfonyl)piperidine-4-yl)-1H-1,2,3-triazol-5-yl)pyridin-3-yl)-6-oxo-1,6-dihydropyridazine-3-carboxamide] | < 50 nM | < 50 nM |  | 
C[C@@H](NC(=O)c1ccc(=O)n(-c2cncc(-c3cnnn3[C@H]3CC3(F)F)c2)n1)c1cccc(C(F)(F)F)c1F [Example 23, 1-[5-[3-[(1S)-2,2-difluorocyclopropyl]triazol-4-yl]-3-pyridyl]-N-[(1R)-1-[2-fluoro-3-(trifluoromethyl)phenyl]ethyl]-6-oxo-pyridazine-3-carboxamide] |  |  | 50 to 150 nM | 50 to 150 nM
C[C@@H](NC(=O)c1ccc(=O)n(-c2cncc(-c3cnnn3C)c2)n1)c1cccc(C(F)(F)CF)c1F [Example 1-8, (R)-N-(1-(2-fluoro-3-(1,1,2-trifluoroethyl)phenyl)ethyl)-1-(5-(1-methyl-1H-1,2,3-triazol-5-yl)pyridin-3-yl)-6-oxo-1,6-dihydropyridazine-3-carboxamide] | 50 to 150 nM | < 50 nM |  | 
